Test results published in patent publication US20250263370A1 (Tay Therapeutics Limited, priority 2022, published 2025).
Read-outs that look alike come from different tables or passages of the source.

Legend:
BRD4 BD1 = BRD4 BD1 (Homo sapiens (Human), UniProt O60885); assay: NanoBRET bromodomain assay, NanoLuc-BRD4-BD1 fusion in HEK293 cells; format: cell-based; conditions: top concentration 10 μM
Protocol: (§1) HEK293 cells were transfected using NanoLuc-BRD4-BD1 or NanoLuc-BRD4-BD2 fusion vectors and incubated at 37° C. in an atmosphere of 5% CO2 for 20-24 hours. The transfected cells were then dispensed into 96-well plates using 90 μl cell suspension per well containing 2×10^5 cells/mL in Opti-MEM and 1× final concentration of tracer. 90 μL per well of cell suspension without tracer was also dispensed into at least 3 wells as “No tracer control samples” for background correction. Serially diluted test compounds were prepared at 1000× concentration in DMSO and further diluted to 10× concentration in Opti-MEM. […] Plates were then incubated at 37° C. +5% 002 incubator for 2 hours. […] Donor emission (450 nm) and acceptor emission (610 nm) were measured using PHERAstar (BMG LabTech). For data analysis, the raw BRET ratio was generated and converted to milliBRET units with background correction using the formula: [(Acceptorsample/Donorsample−(Acceptorno tracer control/Donorno tracer control)]×1000. The mBU data was plotted as a function of compound concentration and IC50s for BRET assay were determined by nonlinear regression analysis of concentration response curves using the Collaborative Drug Discovery Vault software. The fold-selectivity was calculated by dividing the IC50 for BRD4 BD1 by the IC50 for BRD4 BD2.

[1] = Intrinsic clearance in liver microsomes, rat; format: in vitro ADME; conditions: rat, liver microsomes, pH 7.4, rat liver microsomes, Method 1; read-out: Half-Life (T1/2) (min), Rat
Protocol: From stock solution of compound on 10 mM DMSO, a working solution of 0.1 mM is prepared by diluting the compound in DMSO. 6.25 μL of a 20 mg/mL solution of microsomes in PBS pH 7.4 buffer is added to 216.25 μL PBS pH 7.4 buffer (final microsome concentration—0.5 mg/mL). 25 μL of 10 mM solution of NADPH in PBS pH 7.4 buffer is added to the incubations (final NADPH concentration—1 mM). The mixture is pre-warmed to 37° C. for 10 minutes. 2.5 μL of test compound working solution is added (final compound concentration—1 μM with 1% DMSO). Aliquots of 30 μL are taken from the reaction solution at 0.5, 5, 15, 30 and 60 minutes. The reaction was stopped by the addition of 5 volumes of cold acetonitrile with IS (100 nM alprazolam, 200 nM caffeine and 100 nM tolbutamide). Samples were centrifuged at 3, 220 g for 40 minutes. Aliquots of 100 μL of the supernatant are mixed with 100 μL of ultra-pure H2O and used for LC-MS/MS analysis. The percent compound remaining at each time point is calculated with respect to that of the 0.5 min sample. The data are analysed to calculate half-life. Control experiments are run without NADPH and blank samples are prepared using DMSO without the test compound.
A 50 mM stock solution (in DMSO) is prepared for the compound. From the stock solution, a working solution of 0.5 mM is prepared by diluting the compound in DMSO. This concentration of working solution is prepared considering a final concentration of 1 uM with 0.1% DMSO. The compound (1 μL of working solution) is spiked in PBS with pH 7.4 ([…]) at a concentration of 1 μM. Subsequently, 110 μL of 10 mM NADPH is added (as a co-factor). The sample is incubated at 37° C. for 15 min. Following this, pre-warmed liver microsomes (27.5 μL; final protein conc. 0.5 mg/mL) are added. The samples are then incubated at 37° C. Aliquots of samples are withdrawn at 0, 5, 15, 30, 45 and 60 min. The reaction is stopped by using chilled acetonitrile containing internal standard. The samples are centrifuged, and the supernatants analysed by LC-MS/MS. The percent compound remaining at each time point is calculated with respect to that of the 0 min sample. The data are then analysed to calculate half-life and intrinsic clearance (CLint). Control experiments are run without NADPH and blank samples are prepared using DMSO without the test compound.

BRD4 BD2 = BRD4 BD2 (Homo sapiens (Human), UniProt O60885); assay: NanoBRET bromodomain assay, NanoLuc-BRD4-BD2 fusion in HEK293 cells; conditions: for IC50: NanoBRET, HEK293 cells, top concentration 10 μM; for Fold selectivity: IC50 for BRD4 BD1 divided by IC50 for BRD4 BD2, qualitative if an IC50 is at the upper limit;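 on all read-outs here: tracer displacement BRET read in transfected cells after 2 h compound exposure at 37 °C, signal in milliBRET units corrected against no-tracer background wells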
Protocol: as §1

[2] = Sprague-Dawley rat pharmacokinetics, IV and PO cassette dosing; format: in vivo; conditions: Method 1; for IV T1/2: IV 1 mg/kg; for PO F: PO 5 mg/kg
Protocol: Compounds were formulated in 5% DMSO, 40% PEG-400, 55% Milli-Q water at a concentration of 0.2 mg/mL for IV and at 0.5 mg/mL for PO. Two male Sprague-Dawley rats per arm were dosed with up to 5 compounds in cassette mode, which each compound being dosed at 1 mg/kg IV and 5 mg/kg PO. Blood was sampled at various timepoints and plasma isolated. 50 μL of plasma with 5 μL of blank Sprague-Dawley rat plasma were added to 200 μL of acetonitrile containing IS mixture. The samples were vortexed for 30 s. After centrifugation at 4 degrees Celsius, 3900 rpm for 15 min, the supernatant was diluted 3 times with water. 20 μL of diluted supernatant was injected into the LC/MS/MS system for quantitative analysis and concentration of analyte determined by comparison with matrix matched standard curve. WinNonlin (Phoenix™, version 8.3) or other similar software may be used for pharmacokinetic calculations.

[3] = Plasma stability assay, rat plasma; format: in vitro ADME; conditions: Method 2 (10 μM)
Protocol: From stock solution of compound in 10 mM DMSO, a working solution of 1 mM is prepared by diluting the compound in DMSO. To 398 μL of plasma pre-warmed at 37° C. for 15 minutes), 2 μL of working solution of compound is added, resulting in a final concentration of 5 μM (0.5% DMSO) for the compound. The sample is then incubated at 37° C. Aliquot is withdrawn at specified time-points (0, 15, 30, 60 and 120 mins). The reaction is stopped by addition of 450 μL cold acetonitrile containing internal standard (IS). […] Aliquots of the supernatant is analysed using LC-MS/MS. The percent remaining of the compound at each time point is calculated with respect to the control sample (0 min time-point).
A working solution of compound (500 μM) is prepared in DMSO (100%). To 735 μL of plasma, 15 μL of working solution of compound is added—resulting in a final concentration of 10 μM (2% DMSO) for the compound. The sample is then incubated at 37° C. Aliquot is withdrawn at time-points—0, 15, 30, 60, 90 and 120 mins. The reaction is stopped by using chilled acetonitrile containing internal standard (IS). The samples are centrifuged and the supernatants analyzed using LC-MS/MS. The percent remaining of the compound at each time point is calculated with respect to the control sample (0 min time-point).

IC50 (BRD4 BD1) | half-life at 1 μM [1] | IC50 (BRD4 BD2; BRD4 BD2 (IC50)) | Fold selectivity (BRD4 BD2) | IV T1/2 [2] | PO F [2] | Plasma Stability (% remaining at 120 minutes), Rat [3] | Compound | IC50 (BRD4 BD2; read-out: BRD4 BD2 (IC50))
≥ 10 µM | > 60 min | 0.2 to 1 µM | X (Fold >2 and ≤50) |  |  |  | CCNC(=O)c1cc(OC(C)c2ccccc2)c(C(=O)NC)[nH]1 (racemic) [Example 95, N^5-ethyl-N^2-methyl-3-(1-phenylethoxy)-1H-pyrrole-2,5-dicarboxamide] | 
≥ 10 µM |  | < 0.05 µM | XXX (Fold >200) | 1.1 h | 30% |  | CCNC(=O)c1cc(OC(C)c2ccc(Cl)cc2)c(C(=O)NC)[nH]1 (single isomer, unassigned) [Example 18, 3-(1-(4-chlorophenyl)ethoxy)-N^5-ethyl-N^2-methyl-1H-pyrrole-2,5-dicarboxamide] | 
≥ 10 µM |  | 0.05 to 0.2 µM | XX (Fold >50 and ≤200) | 0.4 h | 46% |  | CCNC(=O)c1cc(OC(C)c2ccccc2F)c(C(=O)NC)[nH]1 (single isomer, unassigned) [Example 20, N^5-ethyl-3-(1-(2-fluorophenyl)ethoxy)-N^2-methyl-1H-pyrrole-2,5-dicarboxamide] | 
 | > 60 min |  | XX (Fold >50 and ≤200) |  |  | 89% | CNC(=O)c1[nH]c(C(=O)NC2CCC(O)CC2)cc1OC(C)c1ccc(Cl)cc1 (single isomer, unassigned) [Example 29, 3-(1-(4-chlorophenyl)ethoxy)-N^5-(4-hydroxycyclohexyl)-N^2-methyl-1H-pyrrole-2,5-dicarboxamide] | 
≥ 10 µM | > 60 min | 0.05 to 0.2 µM | XX (Fold >50 and ≤200) | 1.4 h | 66% |  | CNC(=O)c1[nH]c(C(=O)N[C@H]2CC[C@H](O)CC2)cc1OC(C)c1ccc(Cl)cc1F (single isomer, unassigned) [Example 38, 3-(1-(4-chloro-2-fluorophenyl)ethoxy)-N^5-(trans-4-hydroxycyclohexyl)-N^2-methyl-1H-pyrrole-2,5-dicarboxamide] | 
≥ 10 µM | > 60 min | 0.2 to 1 µM | X (Fold >2 and ≤50) | 0.3 h | 69% |  | CCNC(=O)c1cc(OC(C)c2ccc(Cl)cc2F)c(C(=O)NC)[nH]1 (single isomer, unassigned) [Example 41, 3-(1-(4-chloro-2-fluorophenyl)ethoxy)-N^5-ethyl-N^2-methyl-1H-pyrrole-2,5-dicarboxamide] | 
≥ 10 µM |  | 0.05 to 0.2 µM | XX (Fold >50 and ≤200) | 0.5 h | 58% | 20% | CNC(=O)c1[nH]c(C(=O)NC2CCC2)cc1OC(C)c1ccccc1F (single isomer, unassigned) [Example 43, N^5-cyclobutyl-3-(1-(2-fluorophenyl)ethoxy)-N^2-methyl-1H-pyrrole-2,5-dicarboxamide] | 
≥ 10 µM |  | 1 to 10 µM | X (Fold >2 and ≤50) |  |  |  | CNC(=O)c1[nH]c(-c2ccc(F)cc2F)cc1O[C@@H](C)c1ccccc1 [Example 86, (S)-5-(2,4-difluorophenyl)-N-methyl-3-(1-phenylethoxy)-1H-pyrrole-2-carboxamide] | 
≥ 10 µM |  | 0.05 to 0.2 µM | XX (Fold >50 and ≤200) |  |  |  | CNC(=O)c1[nH]c(-c2nc(C)c(C)[nH]2)cc1O[C@@H](C)c1ccccc1 [Example 87, (S)-5-(4,5-dimethyl-1H-imidazol-2-yl)-N-methyl-3-(1-phenylethoxy)-1H-pyrrole-2-carboxamide] | 
≥ 10 µM |  | 0.05 to 0.2 µM | XX (Fold >50 and ≤200) |  |  |  | CNC(=O)c1[nH]c(-c2cnn(C)c2)cc1O[C@@H](C)c1ccccc1 [Example 88, (S)-N-methyl-5-(1-methyl-1H-pyrazol-4-yl)-3-(1-phenylethoxy)-1H-pyrrole-2-carboxamide] | 
≥ 10 µM |  | 0.05 to 0.2 µM | XX (Fold >50 and ≤200) |  |  |  | CNC(=O)c1[nH]c(-c2ncc[nH]2)cc1O[C@@H](C)c1ccccc1 [Example 89, (S)-5-(1H-imidazol-2-yl)-N-methyl-3-(1-phenylethoxy)-1H-pyrrole-2-carboxamide] | 
≥ 10 µM |  | 0.2 to 1 µM | X (Fold >2 and ≤50) |  |  |  | CNC(=O)c1[nH]c(-c2cc(C)nc(C)c2)cc1O[C@@H](C)c1ccccc1 [Example 90, (S)-5-(2,6-dimethylpyridin-4-yl)-N-methyl-3-(1-phenylethoxy)-1H-pyrrole-2-carboxamide] | 
≥ 10 µM |  | > 10 µM | — (Fold ≥0 and ≤2) |  |  |  | CNC(=O)c1[nH]c(C(=O)N[C@H](C)C(F)(F)F)cc1O[C@@H](C)c1ccccc1 [Example 119, N^2-methyl-3-((S)-1-phenylethoxy)-N^5-((R)-1,1,1-trifluoropropan-2-yl)-1H-pyrrole-2,5-dicarboxamide] | 
≥ 10 µM |  | > 10 µM | — (Fold ≥0 and ≤2) |  |  |  | CNC(=O)c1[nH]c(C(=O)N[C@@H](C)C(F)(F)F)cc1O[C@@H](C)c1ccccc1 [Example 120, N^2-methyl-3-((S)-1-phenylethoxy)-N^5-((S)-1,1,1-trifluoropropan-2-yl)-1H-pyrrole-2,5-dicarboxamide] | 
≥ 10 µM |  | 0.2 to 1 µM | X (Fold >2 and ≤50) |  |  |  | CNC(=O)c1[nH]c(C(=O)NC(C)(C)C)cc1O[C@@H](C)c1ccccc1 [Example 121] | 
≥ 10 µM |  | 0.05 to 0.2 µM | XX (Fold >50 and ≤200) |  |  |  | CNC(=O)c1[nH]c(NC(C)=O)cc1O[C@@H](C)c1ccccc1F [Example 128, (S)-5-acetamido-3-(1-(2-fluorophenyl)ethoxy)-N-methyl-1H-pyrrole-2-carboxamide] | 

Compound | IC50 (BRD4 BD1) | half-life at 1 μM [1] | IC50 (BRD4 BD2; BRD4 BD2 (IC50)) | Fold selectivity (BRD4 BD2) | IV T1/2 [2] | PO F [2] | Plasma Stability (% remaining at 120 minutes), Rat [3] | IC50 (BRD4 BD2; read-out: BRD4 BD2 (IC50))
(S)—N^2-ethyl-4-(1-(2-fluorophenyl) ethyl)-N^5,3-dimethyl-1H-pyrrole-2,5-dicarboxamide [Example 74] | ≥ 10 µM |  |  | X (Fold >2 and ≤50) |  |  |  | 1 to 10 µM
